Holding throughout (assay): PNPG hydrolysis, absorbance at […] nm
Holding throughout (type): biochemical

Assay [1] has as its target T1, α-glucosidase.
T1 construct: gene MAL12; pNPG assay at pH 6.8 as usual for the yeast enzyme
The conditions noted are these: PNPG substrate, 0.2 U/mL enzyme, pH 6.8, 10 min.

The test system of assay [2] is T1, α-glucosidase. To be noted: PNPG substrate, 0.2 U/mL enzyme, pH 6.8, 10 min; unreliable: text b23 swaps the parishin B and C values.
In assay [3] the test system is T1, α-glucosidase. To be noted: PNPG substrate, 0.2 U/mL enzyme, pH 6.8, 10 min; unreliable: text b23 swaps the parishin B and C values. The source holds these as a separate data set.

The structures appear in SMILES notation.

`OCc1ccc(O[C@@H]2O[C@H](CO)[C@@H](O)[C@H](O)[C@H]2O)cc1` [GAS] came in with a GAS in assay [1] of 1.23 ± 0.09 mg/mL. Compound `OCc1ccc(O)cc1` [HBA] had an HBA in assay [1] of 0.16 ± 0.03 mg/mL.

Regarding `O=C(CC(O)(CC(=O)OCc1ccc(O[C@@H]2O[C@H](CO)[C@@H](O)[C@H](O)[C@H]2O)cc1)C(=O)OCc1ccc(O[C@@H]2O[C@H](CO)[C@@H](O)[C@H](O)[C@H]2O)cc1)OCc1ccc(O[C@@H]2O[C@H](CO)[C@@H](O)[C@H](O)[C@H]2O)cc1` [Parishin A], the “Parishin A” value in assay [1] came out at 0.24 ± 0.05 mg/mL. Consider `O=C(O)CC(O)(CC(=O)OCc1ccc(O[C@@H]2O[C@H](CO)[C@@H](O)[C@H](O)[C@H]2O)cc1)C(=O)OCc1ccc(O[C@@H]2O[C@H](CO)[C@@H](O)[C@H](O)[C@H]2O)cc1` (stereo partly drawn) [Parishin B], for which the “Parishin B” value in assay [2] is recorded as 0.13 ± 0.03 mg/mL. For `O=C(CC(O)(CC(=O)OCc1ccc(O[C@@H]2O[C@H](CO)[C@@H](O)[C@H](O)[C@H]2O)cc1)C(=O)O)OCc1ccc(O[C@@H]2O[C@H](CO)[C@@H](O)[C@H](O)[C@H]2O)cc1` [Parishin C], the “Parishin C” value in assay [3] is on record as 0.19 ± 0.03 mg/mL.

As for `O=C(O)CC(O)(CC(=O)OCc1ccc(O[C@@H]2O[C@H](CO)[C@@H](O)[C@H](O)[C@H]2O)cc1)C(=O)O` (stereo partly drawn) [Parishin E], the “Parishin E” value in assay [1] was determined as 0.54 ± 0.04 mg/mL.

Source of the values: publication PMC11476761, “Investigation of the Pharmacodynamic Components of Gastrodia elata Blume for Treatment of Type 2 Diabetes Mellitus through HPLC, Bioactivity, Network Pharmacology and Molecular Docking” (International Journal of Molecular Sciences, 2024).
